Source: patent EP0224924B1, “Non-aromatic fluorallylamine MAO inhibitors” (MERRELL DOW PHARMACEUTICALS INC., priority 1985, dated 1987)

How the values were obtained:
MAO-B [1] = target: T1, MAO-B (Rattus norvegicus, UniProt P19643); assay: Inhibition of MAO in vitro, rat brain mitochondria, 14C phenethylamine (PEA) as substrate; format: biochemical; settings: ratio of the inhibitory activity against MAO-B versus MAO-A
T1 construct: in partially purified mitochondria from rat brain; from tissue; host or cells: rat brain mitochondria (partially purified, differential centrifugation)
T1 sequence (P19643 1-520): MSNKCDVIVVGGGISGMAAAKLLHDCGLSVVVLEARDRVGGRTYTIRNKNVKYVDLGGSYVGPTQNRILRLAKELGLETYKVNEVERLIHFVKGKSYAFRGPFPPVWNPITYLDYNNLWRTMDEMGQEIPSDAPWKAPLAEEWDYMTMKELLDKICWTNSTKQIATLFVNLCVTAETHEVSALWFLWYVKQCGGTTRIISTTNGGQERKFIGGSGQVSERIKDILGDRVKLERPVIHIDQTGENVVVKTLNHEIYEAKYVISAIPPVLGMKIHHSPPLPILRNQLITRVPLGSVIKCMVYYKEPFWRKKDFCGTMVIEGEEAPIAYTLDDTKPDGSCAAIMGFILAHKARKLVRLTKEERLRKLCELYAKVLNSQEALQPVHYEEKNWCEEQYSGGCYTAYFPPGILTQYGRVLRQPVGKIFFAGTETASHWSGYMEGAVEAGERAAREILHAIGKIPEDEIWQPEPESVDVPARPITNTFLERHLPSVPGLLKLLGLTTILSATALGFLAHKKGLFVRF
From the text: The ability of a compound of structure 1 to inhibit MAO can be determined in vitro by the method of A. Christmas et al., Br. J. Pharmacol. 45, 490 (1972) in partially purified mitochondria from rat brain using ¹⁴C o-tyramine or ¹⁴C phenethylamine and ¹⁴C 5-HT as the substrate. The MAO inhibitory activity of a compound is expressed as the "IC₅₀" value, which is the molar concentration required to produce 50% inhibition of the enzyme. The IC₅₀ values for certain compounds of structure 1 were determined using the above-described method, and the results are set forth in Table I.
The selectivity of a compound of structure 1 with respect to inhibition of MAO-A and MAO-B can be determined by preparing mitochondria from rat brain by homogenation in phosphate buffer (0.1 M, pH 7.2) followed by differential centrifugation. The mitochondria are suspended in the same buffer, the test compound is added at the desired concentration, and the system is incubated. At different time intervals, aliquots are taken and MAO activity is measured using ¹⁴C 5-hydroxytryptamine (5HT; a preferred substrate for MAO-A) or 14C-phenethylamine (PEA; a preferred substrate for MAO-B) as the substrates. The selectivity is expressed as the ratio of the inhibitory activity against MAO-B versus the inhibitory activity against MAO-A. (Zreika, McDonald, Bey, Palfreyman, J. Neurochem., 43, 448-454 (1984)).

MAO-A = assay: Inhibition of MAO ex vivo, brain mitochondrial fraction after oral dosing, 14C 5-hydroxytryptamine as substrate; format: in vivo; settings: rats, orally (po)
Protocol: (§1) The ability of a compound of formula 1 to inhibit MAO can be determined ex vivo by the following procedure:
(§2) The test compound is administered orally (po) to rats and the animals are killed at various times after treatment. The brain is removed and a mitochondrial fraction, described in Example 12 is prepared. MAO activity is determined using ¹⁴C p-tyramine, as the substrate. Selectivity can be determined by repeating the above-described test using either ¹⁴C 5-hydroxytryptamine (for MAO-A) or ¹⁴C phenethylamine (for MAO-B) as the substrate for determining the % inhibition.

MAO-B [2] = assay: Inhibition of MAO ex vivo, brain mitochondrial fraction after oral dosing, 14C phenethylamine as substrate; format: in vivo; settings: rats, orally (po)
Protocol: as §1, §2

Structure (SMILES) | MAO B SELECTIVITY (MAO-B [1]) | ED50 for MAO-A inhibition (MAO-A) | ED50 for MAO-B inhibition (MAO-B [2])
CCCC/C(=C\F)CN [(E)-2-Butyl-3-fluoroallylamine] | 55 |  | 
CC(C)C/C(=C\F)CN [(E)-2-Isobutyl-3-fluoroallylamine] | 77 | 0.8 mg/kg | 0.05 mg/kg
CC(C)/C(=C\F)CN [(E)-2-Isopropyl-3-fluoroallylamine] | 68 |  | 
CCC(C)/C(=C\F)CN (stereo not drawn) [(E)-2-sec-Butyl-3-fluoroallylamine] | 24 |  | 

Now from value to compound, other results behind:

MAO B SELECTIVITY (MAO-B [1]) | Structure (SMILES) | ED50 for MAO-A inhibition (MAO-A) | ED50 for MAO-B inhibition (MAO-B [2])
13 | CCCCCCC/C(=C\F)CN [(E)-2-Heptyl-3-fluoroallylamine] |  | 
24 | CCCCCC/C(=C\F)CN [(E)-2-Hexyl-3-fluoroallylamine] |  | 
1.5 | CCCCCCCCCCC/C(=C\F)CN [(E)-2-Undecyl-3-fluoroallylamine] |  | 
